Laboratory results published in patent US12569563B2, “Selective HDAC6 degraders and methods of use thereof” (DANA-FARBER CANCER INSTITUTE, INC., priority 2019, dated 2026).

Target: T1, HDAC6 (Homo sapiens, UniProt Q9UBN7)
T1 sequence (Q9UBN7 1-1215): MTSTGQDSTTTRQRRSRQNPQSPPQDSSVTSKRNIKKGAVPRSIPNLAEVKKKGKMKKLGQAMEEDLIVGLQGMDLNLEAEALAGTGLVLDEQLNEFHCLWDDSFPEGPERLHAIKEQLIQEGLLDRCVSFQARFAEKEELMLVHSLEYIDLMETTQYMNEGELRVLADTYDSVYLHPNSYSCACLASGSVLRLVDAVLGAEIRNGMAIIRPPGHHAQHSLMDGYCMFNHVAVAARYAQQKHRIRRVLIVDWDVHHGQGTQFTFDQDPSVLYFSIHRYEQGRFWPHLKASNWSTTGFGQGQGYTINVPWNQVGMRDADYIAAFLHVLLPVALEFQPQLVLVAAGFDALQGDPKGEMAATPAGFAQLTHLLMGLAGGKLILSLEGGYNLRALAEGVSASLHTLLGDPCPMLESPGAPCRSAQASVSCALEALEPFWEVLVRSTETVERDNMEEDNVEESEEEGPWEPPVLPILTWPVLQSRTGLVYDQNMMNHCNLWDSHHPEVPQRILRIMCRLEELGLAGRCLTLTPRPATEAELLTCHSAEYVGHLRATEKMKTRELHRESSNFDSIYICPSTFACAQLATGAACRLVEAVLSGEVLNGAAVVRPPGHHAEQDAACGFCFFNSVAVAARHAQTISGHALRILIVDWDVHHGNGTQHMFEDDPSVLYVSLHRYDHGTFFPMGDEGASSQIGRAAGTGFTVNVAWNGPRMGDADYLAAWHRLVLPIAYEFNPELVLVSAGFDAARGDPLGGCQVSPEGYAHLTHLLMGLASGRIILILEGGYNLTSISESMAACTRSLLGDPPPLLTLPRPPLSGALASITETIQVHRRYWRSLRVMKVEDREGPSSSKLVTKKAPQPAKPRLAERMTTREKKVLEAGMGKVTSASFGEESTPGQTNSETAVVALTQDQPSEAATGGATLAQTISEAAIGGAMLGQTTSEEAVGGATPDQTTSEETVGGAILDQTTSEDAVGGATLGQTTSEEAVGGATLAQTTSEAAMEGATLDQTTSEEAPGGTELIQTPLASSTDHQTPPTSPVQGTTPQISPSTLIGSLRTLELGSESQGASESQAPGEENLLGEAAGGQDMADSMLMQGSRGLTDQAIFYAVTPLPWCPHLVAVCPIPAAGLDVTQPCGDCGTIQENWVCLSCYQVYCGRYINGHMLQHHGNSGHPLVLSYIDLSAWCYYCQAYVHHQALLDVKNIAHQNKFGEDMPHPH
Assay: Multiplexed TMT mass spectrometry proteomics in Kelly cells, HDAC6 abundance
Assay type: cell-based
Design: endogenous in cells; host or cells: Kelly cells
Method: Lysis buffer (8 M Urea, 50 mM NaCl, 50 mM 4-(2hydroxyethyl)-1-piperazineethanesulfonic acid (EPPS) pH 8.5, protease and phosphatase inhibitors from Roche®) were added to the cell pellets and homogenized by 20 passes through a 21 gauge (1.25 in. long) needle to achieve a cell lysate with a protein concentration between 1-4 mg mL^−1. A micro-BCA assay (Pierce™) was used to determine the final protein concentration in the cell lysate. 200 μg of protein for each sample were reduced and alkylated as described above.
Proteins were precipitated using methanol/chloroform. Four volumes of methanol were added to the cell lysate, followed by one volume of chloroform, and finally three volumes of water. The mixture was vortexed and centrifuged to separate the chloroform phase from the aqueous phase. The precipitated protein was washed with three volumes of methanol, centrifuged and the resulting washed precipitated protein was allowed to air dry. The precipitated protein was resuspended in 4 M Urea, 50 mM HEPES pH 7.4, followed by dilution to 1 M urea with the addition of 200 mM EPPS, pH 8. Proteins were first digested with LysC (1:50; enzyme:protein) for 12 hours at room temperature. The LysC digestion was diluted to 0.5 M Urea with 200 mM EPPS pH 8 followed by digestion with trypsin (1:50; enzyme:protein) for 6 hours at 37° C. Tandem mass tag (TMT) reagents (Thermo Fisher Scientific™) were dissolved in anhydrous acetonitrile (ACN) according to manufacturer's instructions.
Anhydrous ACN was added to each peptide sample to a final concentration of 30% v/v, and labeling was induced with the addition of TMT reagent to each sample at a ratio of 1:4 peptide:TMT label. […] The sample channels were combined at a 1:1:1:1:1:1:1:1:1:1:1 ratio, desalted using Cis solid phase extraction cartridges (Waters) and analyzed by LC-MS for channel ratio comparison. Samples were then combined using the adjusted volumes determined in the channel ratio analysis and dried down in a speed vacuum. […]

course of HDAC6 protein levels, time course (FIG. 4) (1 μM, over the course of 16 hours): continued to decrease
Compound: CN(C(=O)CCCNc1cccc2c1C(=O)N(C1CCC(=O)NC1=O)C2=O)c1ccc(NC(=O)CCCCCCC(=O)NO)cc1 (stereo not drawn) [Compound 1, N^1-(4-(4-((2-(2,6-dioxopiperidin-3-yl)-1,3-dioxoisoindolin-4-yl)amino)-N-methylbutanamido)phenyl)-N^8-hydroxyoctanediamide]
change in cellular HDAC6 protein levels vs DMSO (heat map FIG. 5) (1 μM, 2, 4, 8, and 16 hours): induced down regulation of cellular HDAC6 protein levels | change in HDAC6 protein levels vs DMSO, time course (FIG. 4) (1 μM, after 2 hours): significant reduction in HDAC6 protein levels
